The test system of test [1] is Rhizoctonia solani. The test is described as follows: Example F rice sheath blight. It counts as in vivo. Conditions: Rhizoctonia solani, 144 h, read-out: disease control rating, Ex. F. The method in brief:
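Foliar run-off spray, rice seedlings: compound at 100 or 20 ppm in aqueous 250 ppm polyhydric alcohol ester surfactant, acetone 6% v/v final.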

The next test deals with Botrytis cinerea. The test is described as follows: Example C bean grey mold. It counts as in vivo. Conditions: Botrytis cinerea, 24 h, read-out: disease control rating, Ex. C. The method in brief: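 Spray rates: 100 and 20 ppm. Vehicle: purified water with 6% acetone by final volume plus 250 ppm TREM 014 (polyhydric alcohol esters). Host plants, broad bean seedlings, were wetted until run-off.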

For test [2], the system named is Erysiphe graminis f. sp. tritici. The test is described as follows: Example D wheat powdery mildew. It counts as in vivo. To be noted: Blumeria graminis, 144 h, read-out: disease control rating, Ex. D. The method in brief:
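Seedling wheat was treated by spraying to run-off; formulation used acetone as co-solvent (6% final) and TREM 014 surfactant at 250 ppm, with compound at 100 or 20 ppm.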

Test [3] relates to Rhizoctonia solani. The test is described as follows: Example K cotton blight. In kind it is in vivo. To be noted: 336 h, 5 kg/ha, read-out: disease control rating, Ex. K. Here is the method: […] Seeds and soil were then inoculated with a mixture of sand, cereal and mycelium of the fungus Rhizoctonia solani, causal agent of cotton blight, and incubated in a growth chamber at 30° C. for 14 days. Disease ratings were then made.

A further test deals with Phytophthora infestans. The test is described as follows: whole plant or invertebrate. It counts as in vivo. Conditions: Phytophthora infestans, in Solanum lycopersicum, read-out: disease control rating, Ex. H, 100 PPM.
The test system of test [4] is Aspergillus fumigatus ATCC 28214. The test is described as follows: In vitro antifungal MIC, microtiter broth dilution. Conditions: Aspergillus fumigatus, ATCC28214, 24 h, read-out: MIC values, A. fumigatus, 30°, 24 hours. On the technique in general: In broth dilution the organism is exposed to a series of concentrations in liquid medium.
The subject of the next test is Pyricularia oryzae. The test is described as follows: whole plant or invertebrate. It counts as in vivo. To be noted: Pyricularia oryzae, 120 h; for pest or weed control at 20 ppm: read-out: disease control rating, Ex. E, 20 PPM; for pest or weed control at 100 ppm: read-out: disease control rating, Ex. E, 100 PPM.
For the next test, the system named is Plasmorpara viticola. The test is described as follows: Example I grape downy mildew. It counts as in vivo. Conditions: read-out: disease control rating, Ex. I. The method in brief: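 First, each compound is taken up in acetone amounting to 6% of the final volume. It is then suspended in purified water containing 250 ppm of the polyhydric alcohol ester surfactant TREM 014, at 100 or 20 ppm. Finally, the suspension is sprayed onto grape seedlings until run-off.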

For test [5], the system named is Candida albicans ATCC 11651. The test is described as follows: In vitro antifungal MIC, microtiter broth dilution. To be noted: Candida albicans, ATCC11651, 24 h, read-out: MIC values, C. albicans, 30°, 24 hours.
Test [6] has as its system Candida albicans ATCC 11651. The test is described as follows: In vivo systemic Candida infection in mice, primary assay. More on the design: species or system Candida albicans; CF-1 female mice. Conditions: Candida albicans, 150 mg/kg per day, read-out: % Survival. Summed up:
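CF-1 female mice (20 g, 10 per group) were infected IV with 0.2 ml of 1×10^7/ml C. albicans ATCC 11651, then given test compound subcutaneously at 50 or 150 mg/kg/day at 1 and 6 h post-infection and once daily for three more days. Survival was followed for 21 days against infected untreated mice; ≥70% protection at 14 days was scored active.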

Test [7] concerns Cercosporidium personatum. The test is described as follows: Example B Peanut Late Leafspot. It counts as in vivo. Conditions: Nothopassalora personata, read-out: disease control rating, Ex. B. Summed up: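 Spray suspensions at 100 or 20 ppm, prepared from acetone solutions (acetone 6% of final volume) in water carrying 250 ppm of a polyhydric alcohol ester surfactant, were applied to peanut seedlings until run-off.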

The test system of another test is Puccinia recondita. The test is described as follows: Example G wheat leaf rust. It counts as in vivo. To be noted: read-out: disease control rating, Ex. G.
Another test relates to Pythium aphanadermatum. The test is described as follows: Example J cucumber damping off. In kind it is in vivo. The arrangement: key to phytotoxicity entry, Ex. J: P: disease control was not measured due to phytoxicity. To be noted: 5 kg/ha; for pest or weed control at 5000 g/ha: Pythium, 336 h, read-out: disease control rating, Ex. J. Here is the method:
[…] Seeds and soil were then inoculated with a mixture of sand, cereal and mycelium of the fungus Pythium aphanadermatum, causal agent of cucumber damping off, and incubated in a growth chamber at 30° C. for 14 days. Disease ratings were then made.

A further test relates to Venturia inaequalis. The test is described as follows: Example A apple scab. To be noted: read-out: disease control rating, Ex. A. It counts as in vivo. The method in brief: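 Spray application to run-off on apple seedlings; compound at 100 or 20 ppm in water with 250 ppm TREM 014 (polyhydric alcohol esters) and 6% acetone of final volume.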
Another test has as its system Sclerotium rolfsii. The test is described as follows: Example M southern blight. It counts as in vivo. Conditions: Agroathelia rolfsii, 336 h; 5 kg/ha; read-out: disease control rating, Ex. M. The protocol:
[…] Seeds and soil were then inoculated with a mixture of sand, cereal and mycelium of the fungus Sclerotium rolfsii, causal agent of sourthern blight, and incubated in a growth chamber at 30° C. for 14 days. Disease ratings were then made.

Structures are written as SMILES. Converted amounts (≈) assume the structure as drawn. Like-named read-outs stand apart in the source and are kept apart here.

On to `C=C(c1cccc(F)c1)C(O)(Cn1cncn1)c1ccc(Cl)cc1Cl` (stereo not drawn) [Example 16, 2-(2,4-Dichlorophenyl)-3-(3-fluorophenyl)-1-(1H-1,2,4-triazol-1-yl)-3-buten-2-ol], for which the pest or weed control at 20 ppm in the test on Rhizoctonia solani [1] came out at 0%; with Botrytis cinerea, 27%; in test [2], 67%; in the test on Pyricularia oryzae it was 0%; in [7], 99%; with Puccinia recondita, 100%. In addition, the pest or weed control at 20 ppm in the test with Venturia inaequalis turned out to be 74%. The pest or weed control at 100 ppm with Rhizoctonia solani [1] came to 0%; with Botrytis cinerea, 46%; with Phytophthora infestans, 0%; with Pyricularia oryzae it was 0%; with Plasmorpara viticola, 23%. Moreover, the pest or weed control at 5000 g/ha with Rhizoctonia solani [3], with Pythium aphanadermatum and in the test with Sclerotium rolfsii was 0% in each case. In addition, the MIC in test [4] worked out at 6.3 µg/mL (≈ 16.7 µM); in [5], 0.03 µg/mL (≈ 0.0793 µM). In addition, the responders at 150 mg/kg worked out at 100% in test [6] (ATCC11651, 168 h, day 7); 100% in test [6] (ATCC11651, 336 h, day 14); 100% in [6] (ATCC11651, 504 h, day 21).
As for `C=C(c1ccccc1Cl)C(O)(Cn1cncn1)c1ccccc1Cl` (stereo not drawn) [Example 622], the pest or weed control at 100 ppm is 100% in the test with Rhizoctonia solani [1]; 84% with Botrytis cinerea; 99% in test [2]; 0% with Phytophthora infestans; 0% in the test with Pyricularia oryzae; 26% in the test on Plasmorpara viticola. Also, the pest or weed control at 100 ppm (in test [7]; in the test on Puccinia recondita; in the test on Venturia inaequalis) was 100% each time. The pest or weed control at 5000 g/ha in the test with Rhizoctonia solani [3], with Pythium aphanadermatum and in the test on Sclerotium rolfsii was 0% throughout. Also, the results for the MIC in [4] and in test [5] were 0.1 µg/mL (≈ 0.278 µM) and 0.03 µg/mL (≈ 0.0833 µM), respectively. Moreover, the responders at 150 mg/kg was found to be 100% in test [6] (ATCC11651, 168 h, day 7); 100% in test [6] (ATCC11651, 336 h, day 14); 100% in test [6] (ATCC11651, 504 h, day 21).
Turning to `C=C(c1ccc(F)cc1)C(O)(CCCC)Cn1cncn1` (stereo not drawn) [Example 6], the pest or weed control at 100 ppm with Rhizoctonia solani [1] was 0%; in the test on Botrytis cinerea, 84%; in test [2] it was 98%; in the test on Phytophthora infestans it was 23%; in the test on Pyricularia oryzae, 0%; in the test on Plasmorpara viticola it was 0%. Further, the pest or weed control at 100 ppm in test [7] came out at 82%; in the test with Puccinia recondita, 96%; in the test on Venturia inaequalis, 0%. The pest or weed control at 5000 g/ha in the test with Rhizoctonia solani [3], with Pythium aphanadermatum and in the test with Sclerotium rolfsii was 0% in each case. The values for the minimal inhibitory concentration (MIC) in test [4] and in test [5] were 25 µg/mL (≈ 86.4 µM) and 1.6 µg/mL (≈ 5.53 µM), respectively. Also, the responders at 150 mg/kg is 50% in test [6] (ATCC11651, 168 h, day 7); 10% in test [6] (ATCC11651, 336 h, day 14); 0% in test [6] (ATCC11651, 504 h, day 21).
On to `C=C(c1cccc(F)c1)C(O)(Cn1cncn1)c1ccc(Cl)cc1` (stereo not drawn) [Example 17], for which the pest or weed control at 20 ppm with Rhizoctonia solani [1] was found to be 0%; with Botrytis cinerea it was 57%; in test [2], 95%; in the test on Pyricularia oryzae, 0%; in test [7] it was 100%; with Puccinia recondita, 100%. Besides, in the test on Venturia inaequalis, the pest or weed control at 20 ppm is 80%. Also, the pest or weed control at 100 ppm in the test on Rhizoctonia solani [1] turned out to be 81%; in the test on Botrytis cinerea, 89%; in the test with Phytophthora infestans, 0%; with Pyricularia oryzae, 0%; in the test on Plasmorpara viticola, 42%. The pest or weed control at 5000 g/ha with Rhizoctonia solani [3], in the test on Pythium aphanadermatum and in the test with Sclerotium rolfsii was 0% in each case. Also, the MIC in test [4] is 12.5 µg/mL (≈ 36.4 µM); in test [5], 0.03 µg/mL (≈ 0.0873 µM). Moreover, the responders at 150 mg/kg in test [6] (ATCC11651, 168 h, day 7) is 100%; in [6] (ATCC11651, 336 h, day 14) it was 90%; in test [6] (ATCC11651, 504 h, day 21), 70%.
On to `C=C(c1ccc(Cl)cc1Cl)C(O)(Cn1cncn1)c1ccc(Cl)cc1Cl` (stereo not drawn) [Example 100], for which the pest or weed control at 100 ppm in the test with Rhizoctonia solani [1] turned out to be 80%; with Botrytis cinerea, 96%; in test [2], 83%; in the test on Phytophthora infestans, 0%; with Pyricularia oryzae it was 95%; in the test with Plasmorpara viticola it was 83%. Further, the pest or weed control at 100 ppm (in [7]; in the test on Puccinia recondita; in the test on Venturia inaequalis) was 100% each time. Moreover, the pest or weed control at 5000 g/ha in the test with Rhizoctonia solani [3] and with Sclerotium rolfsii was 0% in each case. In addition, the MIC in test [4] is 3.2 µg/mL (≈ 7.46 µM); in test [5], 0.03 µg/mL (≈ 0.0699 µM). Further, the responders at 150 mg/kg in [6] (ATCC11651, 168 h, day 7) amounted to 100%; in [6] (ATCC11651, 336 h, day 14) it was 50%; in test [6] (ATCC11651, 504 h, day 21), 30%. In addition, in the test on Pythium aphanadermatum, the “phytotoxicity entry, Ex. J” value is reported as “P”.
As for `C=C(c1ccccc1Cl)C(O)(Cn1cncn1)c1ccccc1F` (stereo not drawn) [Example 620], the pest or weed control at 100 ppm stood at 100% with Rhizoctonia solani [1]; 96% with Botrytis cinerea; 98% in test [2]; 0% in the test on Phytophthora infestans; 51% in the test on Pyricularia oryzae; 0% in the test with Plasmorpara viticola. Besides, the pest or weed control at 100 ppm (in test [7]; in the test on Puccinia recondita; in the test on Venturia inaequalis) was 100% each time. For the same compound, the pest or weed control at 5000 g/ha in the test with Rhizoctonia solani [3], with Pythium aphanadermatum and in the test on Sclerotium rolfsii was 0% throughout. The MIC in test [4] was 0.05 µg/mL (≈ 0.145 µM); in [5] it was 0.03 µg/mL (≈ 0.0873 µM). Besides, the responders at 150 mg/kg in test [6] (ATCC11651, 168 h, day 7) stood at 100%; in test [6] (ATCC11651, 336 h, day 14), 100%; in [6] (ATCC11651, 504 h, day 21) it was 90%.

One may read the MIC as the least concentration at which growth counts as inhibited.

The record behind these values is patent US4965280A, “Antifungal carbinols” (E. I. Du Pont de Nemours and Company, priority 1989, dated 1990).
